Data reported in patent publication US20190381017A1, “Compositions Comprising Serdexmethylphenidate Conjugates And Methods Of Use Thereof” (KemPharm, Inc., priority 2018, published 2019).
Structures can show the parent of a compound that is named as a salt. Marks after values point to notes of the source that are not given here.

Experiments:
[1] = tested on: recreational stimulant users; assay: Intravenous abuse potential, VAS pharmacodynamic scores (Example 2); format: in vivo, human; conditions: SDX Cl 30 mg, d-MPH HCl 15 mg, bipolar VAS
Source text: “Drug liking” score, used herein, is the score used to assess the degree that a human participant likes a drug effect at the time the question is being asked (that is, at the moment). It is scored using a 0 to 100 point bipolar visual analogue scale (VAS) anchored in the center with a neutral anchor of “neither like nor dislike” (score of 50), on the left with “strong disliking” (score of 0) and on the right with “strong liking” (score of 100).
“Euphoria” or “Feeling High” score, used herein, is the term to describe the score used to assess the degree that a human participant is high at the time the question is being asked (that is, at the moment). It is scored using a 0 to 100 point unipolar visual analogue scale (VAS) anchored on the left with “Not at All” (score of 0) and on the right with “Extremely” (score of 100).
“Take Drug Again” score, used herein, is the term to describe the score used to assess the degree that a human participant wants to take the drug again, if given the opportunity, based on his/her opinion now, i.e., at the time the question is being asked. It is scored using a 0 to 100 point unipolar visual analogue scale (VAS) anchored on the left with “Definitely Would Not” (score of 0) and on the right with “Definitely Would” (score of 100).
“Overall Drug Liking” score, used herein, is the term to describe the score used to assess the human subject's global perception of drug liking (i.e., the subjective effects over the whole course of the drug experience including any carryover effects). Subjects respond to the statement “Overall, my liking for this drug is.” The question is scored using a 0-100 point bipolar VAS anchored on the left with “Strong Disliking” (score of 0); “Neither Like nor Dislike” (score of 50) in the middle, and anchored on the right with “Strong Liking” (score of 100). This scale has the advantage of the human subject being relatively less affected or unaffected by acute study drug effects (if any) by the time of the assessment.
“Good Effects” score, used herein, is the term to describe the score used to assess the degree that a human participant is feeling good drug effects at the time the question is being asked (that is, at the moment). Subjects respond to the statement “At this moment, I can feel good drug effects.” It is scored using a 0 to 100 point unipolar visual analogue scale (VAS) anchored on the left with “Not at All” (score of 0) and on the right with “Extremely” (score of 100).
Safety assessments were performed throughout the study.

[2] = tested on: healthy, nondependent, recreational stimulant users; assay: Oral abuse potential, VAS pharmacodynamic scores (Example 4); conditions: phentermine HCl 60 mg
[3] = tested on: recreational stimulant users; assay: Treatment-emergent adverse events, intravenous study (Example 2)
Description: A study was conducted in humans to assess the intravenous abuse potential of serdexmethylphenidate relative to unconjugated d-methylphenidate and placebo in recreational stimulant abusers. This was a Phase 1, randomized, double-blind study in which serdexmethylphenidate and d-methylphenidate were administered intravenously in recreational stimulant users with a history of non-oral abuse. In Part A of the study, subjects (Cohort 1) participated in a dose-escalation phase to determine the optimal dose of intravenous d-methylphenidate based on tolerability and abuse-related pharmacodynamic assessments. […] The doses of serdexmethylphenidate and d-methylphenidate are equivalent with respect to molar amount of d-methylphenidate. FDA-recommended abuse potential measures and blood samples were collected at different times after dosing. Safety assessments were performed throughout the study.

[4] = SDX Cl 120 mg, Focalin XR 80 mg
[5] = SDX Cl 120 mg, Focalin XR 80 mg, bipolar VAS
[6] = SDX Cl 120 mg, Focalin XR 80 mg, unipolar VAS

## COC(=O)[C@H](c1ccccc1)[C@H]1CCCCN1C(=O)OC[n+]1cccc(C(=O)N[C@@H](CO)C(=O)O)c1 [serdexmethylphenidate]
[1]
  Drug Liking Emax (mean): 56.6

## CC(C)(N)Cc1ccccc1 [phentermine hydrochloride, reference compound]
[2]; Focalin XR 80 mg
  Mean difference Any Effects Emax vs SDX Cl 120 mg: 37.4
  Mean difference Any Effects Emax vs SDX Cl 240 mg: 28.0
  Mean difference Bad Effects Emax vs SDX Cl 120 mg: 11.9
  Mean difference Bad Effects Emax vs SDX Cl 240 mg: 4.6
  Mean difference Drug Liking Emax vs SDX Cl 120 mg: 15.5
  Mean difference Drug Liking Emax vs SDX Cl 240 mg: 14.0
  Mean difference Feeling Alert/Drowsy Emax vs SDX Cl 120 mg: 15.7
  Mean difference Feeling Alert/Drowsy Emax vs SDX Cl 240 mg: 12.2
  Mean difference Feeling High Emax vs SDX Cl 120 mg: 36.0
  Mean difference Feeling High Emax vs SDX Cl 240 mg: 27.7
  Mean difference Good Effects Emax vs SDX Cl 120 mg: 35.5
  Mean difference Good Effects Emax vs SDX Cl 240 mg: 30.2
  Mean difference Overall Drug Liking Emax vs SDX Cl 120 mg: 14.9
  Mean difference Overall Drug Liking Emax vs SDX Cl 240 mg: 15.3
  Mean difference Take Drug Again Emax vs SDX Cl 120 mg: 14.9
  Mean difference Take Drug Again Emax vs SDX Cl 240 mg: 15.4
[2]; [4]
  Mean difference Any Effects Emax vs placebo: 48.5
  Mean difference Drug Liking Emax vs placebo: 22.3
  Mean difference Feeling Alert/Drowsy Emax vs placebo: 23.5
  Mean difference Feeling High Emax vs placebo: 46.4
  Mean difference Good Effects Emax vs placebo: 47.6
  Mean difference Overall Drug Liking Emax vs placebo: 18.6
  Mean difference Take Drug Again Emax vs placebo: 17.1
[2]; [5]
  Drug Liking Emax (mean): 80.2
  Drug Liking Emax (median): 84.0
  Feeling Alert/Drowsy Emax (mean): 81.4
  Feeling Alert/Drowsy Emax (median): 84.0
  Overall Drug Liking Emax (mean): 73.4
  Overall Drug Liking Emax (median): 77.0
  Take Drug Again Emax (mean): 72.3
  Take Drug Again Emax (median): 75.0
[2]; [6]
  Any Effects Emax (mean): 69.2
  Any Effects Emax (median): 74.0
  Bad Effects Emax (mean): 17.9
  Bad Effects Emax (median): 7.0
  Feeling High Emax (mean): 65.3
  Feeling High Emax (median): 76.0
  Good Effects Emax (mean): 66.2
  Good Effects Emax (median): 75.0
[2]
  Median difference Bad Effects Emax vs placebo: 8.0^c

## COC(=O)[C@H](c1ccccc1)[C@H]1CCCCN1 [d-methylphenidate, methyl (R)-2-phenyl-2-((R)-piperidin-2-yl)acetate, reference compound]
[3]
  typical stimulant-related Adverse Events (euphoric mood, hypervigilance, increased heart rate), frequency vs serdexmethylphenidate: more common
[1]
  Drug Liking Emax (mean): 84.3
